Results reported in patent US20040220121A1, “Methods for drug delivery” (priority 2003, published 2004).

Legend:
[1] = test system: JJ5 Breast Cancer cells; conditions: in vitro
Protocol: The EGF-^111In-labeled transferrin (0.25-80 ng) was incubated with 1.5×10^6 cells/dish JJ5 Breast Cancer (prepared from BCBM JJ5) cells in 1 mL of 0.1% human serum albumin in 35 mm multiwell culture dishes at 37° C. for 30 minutes. The cells were transferred to a centrifuge tube and centrifuged. The cell pellet was separated from the supernatant and counted in a g-scintillation counter to determine bound (B) and free (F) radioactivity. Non-specific binding was determined by conducting the assay in 100 nM hEGF. […] Internalized fraction was measured by determining the proportion of radioactivity which could not be displaced from the cell surface by 100 nM hEGF. Cell-associated binding (surface-binding and intracellular accumulation) was expressed as a percentage of medium radioactivity bound per mg of cell study protein.

[2] = test system: JJ5 Breast Cancer cells; assay: Growth inhibition assay of EGF-111In-labeled transferrin composition against JJ5 breast cancer cells; format: cell-based, human; conditions: 3.5 pCi/cell, cultured 4 days
Protocol: JJ5 breast cancer cells (prepared from BCBM JJ5) expressing approximately 10^6 epidermal growth factor receptors/cell were incubated with EGF-^111In-labeled transferrin composition, unlabeled hEGF or ^111In-oxine, centrifuged to remove free ligand, then assayed and seeded ([…]) into 35 mm culture dishes. Growth medium was added and the cells were cultured at 37° C./5% CO^2 for 4 days. The cells were then recovered by trypsinization and counted in a hemocytometer. Control dishes contained cells cultured in growth medium containing ^111In-DTPA or growth medium alone.

## EGF-^111In-labeled transferrin composition: human EGF linked via PEG3400-biotin or peptide linker to streptavidin-transferrin, transferrin labeled with 111In
[1]; 37° C.
  retained by the breast cancer cells: at least 24 hours
[1]; over a 24 hour period at 37° C.
  111In radioactivity lost from the cells: < 8%

## [In+3].[O-]c1cccc2cccnc12.[O-]c1cccc2cccnc12.[O-]c1cccc2cccnc12 [^111In-oxine]
[2]
  growth inhibition of the JJ5 cells: 91%
